Experimental data as given in BindingDB's records for doi:10.1074/jbc.M113.534859 (Karlsruhe Institute of Technology, 2014).

These substances were tested against T1, Androgen receptor [646-919] (Human, UniProt P10275) (assay: Fluorescence Polarization Assay). Settings: pH 6.5.
T1 construct: 646-919
T1 sequence (P10275 whole entry): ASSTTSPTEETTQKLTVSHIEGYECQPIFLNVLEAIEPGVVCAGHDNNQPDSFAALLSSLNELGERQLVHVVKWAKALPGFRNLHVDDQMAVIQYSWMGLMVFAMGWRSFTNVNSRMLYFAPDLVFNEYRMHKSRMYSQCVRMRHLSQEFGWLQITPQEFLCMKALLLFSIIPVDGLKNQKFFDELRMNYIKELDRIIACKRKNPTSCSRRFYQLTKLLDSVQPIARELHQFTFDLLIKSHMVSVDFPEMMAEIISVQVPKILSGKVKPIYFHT
Protocol: For the fluorescence polarization experiments, 5 nM fluorescently labeled Bag-1L (Bag-1L(1-20), fluorescein isothiocyanate (FITC)-[…]; Bag-1L(61-80), FITC-[…]) or SRC-2 peptide (FITC-[…]) was incubated with serially diluted AR-LBD (4 to 0.4 μM) in binding buffer (50 mM NaPO4, pH 6.5, 50 mM KCl, 1 mM DTT) and 10 μM DHT. The samples were then equilibrated for 45 min at ambient temperature. For the competition experiments, 400 to 0.4 nM Bag-1L core (GARRPR) or SRC-2 peptides ([…]) were incubated with 4 μM AR-LBD and 5 nM fluorescent Bag-1 or SRC-2 peptide. Binding was measured using polarization (excitation λ = 485 nm, emission λ = 530 nm) on a Synergy H1 hybrid reader (Biotek).

H-HDSKGQTKLLQLLTTKSDQM-OH and “H-MAQRGGARRPRGDRERLGSR-OH [Bag-1L (1-20)]” are within 1.5-fold of each other in Kd: 2800 nM for the first, 2000 nM for the second.

Substance “H-RGAAAGARRPRMKKKTRRRS-OH [Bag-1L (61-80)]” has a Kd of 3300 nM.
